Test results published in patent publication US11078189B2, “Pharmaceutical compounds” (REVIRAL LIMITED, priority 2017, dated 2021).
Read-outs that look alike come from different tables or passages of the source.

Legend:
[1] = molecular target: T1, CYP1A2 (Homo sapiens, UniProt P05177); test: Cytochrome P450 inhibition CYP1A2; format: in vitro ADME; details: human liver microsomes
T1 construct: from tissue; host or cells: human liver microsomes
T1 sequence (P05177 1-516): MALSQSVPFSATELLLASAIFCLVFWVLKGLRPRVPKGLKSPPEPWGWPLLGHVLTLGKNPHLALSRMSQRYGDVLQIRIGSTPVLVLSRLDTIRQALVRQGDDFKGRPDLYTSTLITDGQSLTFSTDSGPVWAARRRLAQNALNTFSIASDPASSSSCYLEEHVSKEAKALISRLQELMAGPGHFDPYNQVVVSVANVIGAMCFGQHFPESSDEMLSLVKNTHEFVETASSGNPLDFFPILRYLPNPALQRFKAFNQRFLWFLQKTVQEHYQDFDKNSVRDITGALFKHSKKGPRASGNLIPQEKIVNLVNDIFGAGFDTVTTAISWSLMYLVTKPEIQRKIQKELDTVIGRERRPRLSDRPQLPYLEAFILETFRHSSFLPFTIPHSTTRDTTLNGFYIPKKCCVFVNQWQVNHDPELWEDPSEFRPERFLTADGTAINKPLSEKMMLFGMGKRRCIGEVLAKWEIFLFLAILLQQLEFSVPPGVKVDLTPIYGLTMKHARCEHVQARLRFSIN
Protocol: (§1) Test compound (0.1, 0.25, 1, 2.5, 10, 25 μM in DMSO; final DMSO concentration 0.3%) was incubated with human liver microsomes (0.25 mg/mL) and NADPH (1 mM) in the presence of a cytochrome P450 isoform-specific probe substrate. The metabolites were monitored by LC-MS/MS and a decrease in the formation of the metabolite compared to the vehicle control used to calculate an IC50 value (test compound concentration which produces 50% inhibition). A cytochrome P450 isoform-specific selective inhibitor was screened alongside the test compounds as a positive control.

[2] = molecular target: T2, CYP2C9 (Homo sapiens, UniProt P11712); test: Cytochrome P450 inhibition CYP2C9; format: in vitro ADME; details: human liver microsomes
T2 construct: from tissue; host or cells: human liver microsomes
Protocol: as §1

[3] = molecular target: T3, CYP3A4 (Homo sapiens, UniProt P08684); test: Cytochrome P450 inhibition CYP3A4; format: in vitro ADME; details: human liver microsomes
T3 construct: from tissue; host or cells: human liver microsomes
Protocol: as §1

[4] = In vivo pharmacokinetics in the dog; design: species or system Beagle dogs; details: Beagle, plasma, 3 mg/kg PO
Protocol: The pharmacokinetics of compounds of the invention were studied in vivo in the dog at doses of 3 mg/kg (PO).
Beagle dogs (n=3) were treated with experimental compounds via oral administration (3 mg/kg). Oral administration was performed by gavage at a dose of 3 mg/kg at a concentration of 0.6 mg/mL in […], 30% PEG 400 & 65% (2-hydroxypropyl)-β-cyclodextrin solution (20% w/v aq.). Serial blood samples were collected at 0.08, 0.25, 0.5, 1, 2, 4, 6, 8, 12 and 24 hours post dosing of compound. […] Serial plasma samples were taken at the defined time points and stored immediately at −80° C.
Following protein precipitation with acetonitrile, samples were analysed with tandem. liquid chromatography/mass spectrometry using electrospray ionisation. A full matrix curve with internal standards was employed and PK parameters were calculated.

T3 sequence (P08684 whole entry): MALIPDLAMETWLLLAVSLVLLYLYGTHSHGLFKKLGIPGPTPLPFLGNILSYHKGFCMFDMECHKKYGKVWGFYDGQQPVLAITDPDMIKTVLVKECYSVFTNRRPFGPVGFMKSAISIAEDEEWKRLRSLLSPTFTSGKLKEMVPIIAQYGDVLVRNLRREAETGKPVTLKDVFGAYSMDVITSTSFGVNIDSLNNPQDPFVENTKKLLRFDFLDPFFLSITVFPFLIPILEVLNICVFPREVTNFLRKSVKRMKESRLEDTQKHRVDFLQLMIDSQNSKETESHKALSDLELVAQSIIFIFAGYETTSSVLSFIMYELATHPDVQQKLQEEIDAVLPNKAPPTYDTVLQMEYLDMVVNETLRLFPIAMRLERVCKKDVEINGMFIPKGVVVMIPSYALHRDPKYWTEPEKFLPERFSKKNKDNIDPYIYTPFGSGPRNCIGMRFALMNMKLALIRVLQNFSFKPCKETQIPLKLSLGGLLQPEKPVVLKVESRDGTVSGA
T2 sequence (P11712 whole entry): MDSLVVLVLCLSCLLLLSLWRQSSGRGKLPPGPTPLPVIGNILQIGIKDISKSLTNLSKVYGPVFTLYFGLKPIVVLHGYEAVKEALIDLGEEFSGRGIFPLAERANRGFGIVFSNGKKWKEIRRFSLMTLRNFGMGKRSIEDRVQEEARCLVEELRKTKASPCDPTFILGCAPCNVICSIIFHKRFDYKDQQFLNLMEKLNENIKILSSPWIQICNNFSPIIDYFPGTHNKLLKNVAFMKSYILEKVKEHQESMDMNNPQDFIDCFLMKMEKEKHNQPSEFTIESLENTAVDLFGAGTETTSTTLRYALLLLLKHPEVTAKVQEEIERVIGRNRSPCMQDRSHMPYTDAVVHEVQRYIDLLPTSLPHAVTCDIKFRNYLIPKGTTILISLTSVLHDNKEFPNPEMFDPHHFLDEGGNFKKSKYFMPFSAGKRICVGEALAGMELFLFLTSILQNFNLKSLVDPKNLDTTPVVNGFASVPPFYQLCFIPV

`CS(=O)(=O)N1CCC(n2c(CN3C(=O)C4(CC4)c4ccc(F)cc43)nc3cc(Cl)ccc32)CC1` [Compound 33, 1′-{[5-Chloro-1-(1-methanesulfonylpiperidin-4-yl)-1H-1,3-benzodiazol-2-yl]methyl}-6′-fluoro-1′,2′-dihydrospiro[cyclopropane-1,3′-indole]-2′-one] gave an IC50 [1] greater than 25 µM, an IC50 [2] greater than 25 µM and an IC50 ([3]; substrate = midazolam, read-out: Cytochrome P450 inhibition IC50 CYP3A4 (midazolam)) of 0.674 µM. The IC50 ([3]; substrate = testosterone, read-out: Cytochrome P450 inhibition IC50 CYP3A4 (testosterone)) was 3.94 µM, the AUC [4] was 3870 ng·h/mL and the AUC(0-inf) [4] was 4280 ng·h/mL. For the same compound, the AUC(0-t) [4] was 3870 ng·h/mL, the Cmax [4] was 535 ng/mL and the Tmax [4] was 0.67 h. It also gave a half-life [4] of 7.24 h.
